Results reported in US12065429B2, “Small molecule modulators of IL-17” (LEO Pharma A/S, priority 2022, dated 2024).
In brackets after ≈: the same amount, converted by molar mass.

What was measured:
recombinant IL-17AA = biological target: T1, recombinant IL-17AA (Homo sapiens, UniProt Q16552); assay: Inhibition of recombinant IL-17AA-induced SEAP reporter gene activity in HEK-Blue IL-17 cells; assay type: cell-based; conditions: recombinant IL-17A 2 ng/ml, overnight
T1 construct: purchased R&D Systems 7955-IL
T1 sequence (Q16552 24-155): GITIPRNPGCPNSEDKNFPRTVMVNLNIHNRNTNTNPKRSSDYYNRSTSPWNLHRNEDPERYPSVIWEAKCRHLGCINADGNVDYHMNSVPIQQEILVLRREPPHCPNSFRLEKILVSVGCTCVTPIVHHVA
Description: Example 62: Inhibition of Recombinant IL-17AA-Induced SEAP Reporter Gene Activity in HEK-Blue™ IL-17 Cells
The assay was run according to the protocol provided by InvivoGen. Briefly, the HEK-Blue™ IL-17 cells (Invivogen, cat #hkb-il17) were suspended in the complete culture medium and seeded in a 96 well plate in a volume of 80 μl in a density of 50,000 cells per well the day before the assay. 10 μl of a solution of the test compounds were added in a serial gradient dilution to the cells followed by the addition of 10 μl IL-17A (R&D Systems cat #7955-IL) in a final concentration of 2 ng/ml. The plate was incubated overnight. The QUANTI-Blue™ solution was used to determine the SEAP activity; 180 μl QUANTI-Blue™ solution and 20 μl of the supernatant from the cell plate were mixed and incubated for 1 hour at 37 degrees Celsius. SEAP levels were measured using a spectrophotometer at 650 nm.

[1] = Human liver microsome (HLM) clearance assay; assay type: in vitro ADME; conditions: human liver microsomes 0.5 mg/mL, NADPH 1 mM, 0.5 μM compound, 40 min
Description: Example 63: Human Liver Microsome (HLM) Clearance Assay
Samples were taken out before addition of NADPH, and at 5, 10, 20 and 40 minutes thereafter and protein precipitation using cold acetonitrile with added internal standard was performed prior to centrifugation and sample analysis using compound specific LCMS/MS methods. Control incubations in buffer and without NADPH were performed in the same manner. Compound depletion was determined and apparent clearance (CLapp) was calculated.

Solubility assay = assay type: physicochemical; conditions: 0.067 M phosphate buffer pH 6.5, 24 hours shaking, from 10 mM DMSO stock; for solubility at 24 h: aqueous buffer, kinetic from dmso stock
Description: After centrifugation, the supernatant was analyzed by HPLC-UV. The solubility was defined as the concentration of the test substance in the selected solvent. It was determined by correlation with an external standard calibration curve.

| EC50 (recombinant IL-17AA) | HLM Clapp [1] | solubility at 24 h (Solubility assay) | Solubility at pH 6.5 (Solubility assay) | Compound |
| --- | --- | --- | --- | --- |
| 4.6 nM | 16 mL/min/kg | < 1 µg/mL | – | Cc1cc[n+]([O-])c(C)c1-c1ccc(NC(=O)[C@@H](NC(=O)c2ccnn2C(C)C)C(C2CC2)C2CC2)nc1Cl (single isomer, unassigned) [Example 56] |
| 740 nM | 18 mL/min/kg | – | <1 μg/mL | Cc1cc[n+]([O-])c(C)c1-c1ccc(NC(=O)[C@@H](NC(=O)c2ccnn2C(C)C)C(C2CC2)C2CC2)nc1Cl (single isomer, unassigned) [Example 57] |
| 11 nM | 12 mL/min/kg | 29 µg/mL (≈ 54 µM) | – | COc1cc(-c2ccc(NC(=O)[C@@H](NC(=O)c3ccnn3C(C)C)C(C3CC3)C3CC3)nc2F)c(C)[n+]([O-])c1 [Example 1, N-[(1S)-1-(dicyclopropylmethyl)-2-[[6-fluoro-5-(5-methoxy-2-methyl-1-oxido-pyridin-1-ium-3-yl)-2-pyridyl]amino]-2-oxo-ethyl]-2-isopropyl-pyrazole-3-carboxamide] |
| – | 22 mL/min/kg | 9 µg/mL (≈ 16.3 µM) | – | CCOc1cc(-c2ccc(NC(=O)[C@@H](NC(=O)c3ccnn3C(C)C)C(C3CC3)C3CC3)nc2F)c(C)[n+]([O-])c1 [Example 10, N-[(1S)-1-(dicyclopropylmethyl)-2-[[5-(5-ethoxy-2-methyl-1-oxido-pyridin-1-ium-3-yl)-6-fluoro-2-pyridyl]amino]-2-oxo-ethyl]-2-isopropyl-pyrazole-3-carboxamide] |
| – | <8 mL/min/kg | 6.5 µg/mL (≈ 12 µM) | – | Cc1c(-c2ccc(NC(=O)[C@@H](NC(=O)c3ccnn3C(C)C)C(C3CC3)C3CC3)nc2F)cc(Cl)c[n+]1[O-] [Example 11, N-[(1S)-1-[[5-(5-chloro-2-methyl-1-oxido-pyridin-1-ium-3-yl)-6-fluoro-2-pyridyl]carbamoyl]-2,2-dicyclopropyl-ethyl]-2-isopropyl-pyrazole-3-carboxamide] |
| – | <8 mL/min/kg | 6 µg/mL (≈ 10.4 µM) | – | Cc1c(-c2ccc(NC(=O)[C@@H](NC(=O)c3ccnn3C(C)C)C(C3CC3)C3CC3)nc2F)cc(C(F)(F)F)c[n+]1[O-] [Example 12, N-[(1S)-1-(dicyclopropylmethyl)-2-[[6-fluoro-5-[2-methyl-1-oxido-5-(trifluoromethyl)pyridin-1-ium-3-yl]-2-pyridyl]amino]-2-oxo-ethyl]-2-isopropyl-pyrazole-3-carboxamide] |
| – | 14 mL/min/kg | 26 µg/mL (≈ 47.6 µM) | – | Cc1cc(-c2ccc(NC(=O)[C@@H](NC(=O)c3ccnn3C(C)C)C(C3CC3)C3CC3)nc2F)c(C2CC2)[n+]([O-])c1 [Example 13, N-[(1S)-2,2-dicyclopropyl-1-[[5-(2-cyclopropyl-5-methyl-1-oxido-pyridin-1-ium-3-yl)-6-fluoro-2-pyridyl]carbamoyl]ethyl]-2-isopropyl-pyrazole-3-carboxamide] |
| – | <8 mL/min/kg | 97 µg/mL (≈ 191 µM) | – | Cc1cc[n+]([O-])cc1-c1ccc(NC(=O)[C@@H](NC(=O)c2ccnn2C(C)C)C(C2CC2)C2CC2)nc1F [Example 15, N-[(1S)-1-(dicyclopropylmethyl)-2-[[6-fluoro-5-(4-methyl-1-oxido-pyridin-1-ium-3-yl)-2-pyridyl]amino]-2-oxo-ethyl]-2-isopropyl-pyrazole-3-carboxamide] |
| – | <8 mL/min/kg | 60 µg/mL (≈ 118 µM) | – | Cc1c(-c2ccc(NC(=O)[C@@H](NC(=O)c3ccnn3C(C)C)C(C3CC3)C3CC3)nc2F)ccc[n+]1[O-] [Example 16, N-[(1S)-1-(dicyclopropylmethyl)-2-[[6-fluoro-5-(2-methyl-1-oxido-pyridin-1-ium-3-yl)-2-pyridyl]amino]-2-oxo-ethyl]-2-isopropyl-pyrazole-3-carboxamide] |
| – | <8 mL/min/kg | 26 µg/mL (≈ 48.4 µM) | – | Cc1cc(-c2ccc(NC(=O)[C@@H](NC(=O)c3ccnn3C(C)C)C(C3CC3)C3CC3)nc2Cl)c(C)[n+]([O-])c1 [Example 18, N-[(1S)-1-[[6-chloro-5-(2,5-dimethyl-1-oxido-pyridin-1-ium-3-yl)-2-pyridyl]carbamoyl]-2,2-dicyclopropyl-ethyl]-2-isopropyl-pyrazole-3-carboxamide] |
| – | <8 mL/min/kg | 18 µg/mL (≈ 33.3 µM) | – | Cc1c(-c2ccc(NC(=O)[C@@H](NC(=O)c3ccnn3C(C)C)C(C3CC3)C3CC3)nc2Cl)cc(F)c[n+]1[O-] [Example 19, N-[(1S)-1-[[6-chloro-5-(5-fluoro-2-methyl-1-oxido-pyridin-1-ium-3-yl)-2-pyridyl]carbamoyl]-2,2-dicyclopropyl-ethyl]-2-isopropyl-pyrazole-3-carboxamide] |
| – | 74 mL/min/kg | 38 µg/mL (≈ 73 µM) | – | CCCn1nccc1C(=O)N[C@H](C(=O)Nc1ccc(-c2cc(C)c[n+]([O-])c2C)c(F)n1)C(C1CC1)C1CC1 [Example 20, N-[(1S)-1-(dicyclopropylmethyl)-2-[[5-(2,5-dimethyl-1-oxido-pyridin-1-ium-3-yl)-6-fluoro-2-pyridyl]amino]-2-oxo-ethyl]-2-propyl-pyrazole-3-carboxamide] |
| – | 73 mL/min/kg | 28 µg/mL (≈ 53.7 µM) | – | Cc1cc(-c2ccc(NC(=O)[C@@H](NC(=O)c3conc3C(C)C)C(C3CC3)C3CC3)nc2F)c(C)[n+]([O-])c1 [Example 22, N-[(1S)-1-(dicyclopropylmethyl)-2-[[5-(2,5-dimethyl-1-oxido-pyridin-1-ium-3-yl)-6-fluoro-2-pyridyl]amino]-2-oxo-ethyl]-3-isopropyl-isoxazole-4-carboxamide] |
| – | <8 mL/min/kg | 19 µg/mL (≈ 34.1 µM) | – | Cc1c(-c2ccc(NC(=O)[C@@H](NC(=O)c3ccnn3C(C)C)C(C3CC3)C3CC3)nc2F)c[n+]([O-])cc1C(F)F [Example 48, N-[(1S)-1-(dicyclopropylmethyl)-2-[[5-[5-(difluoromethyl)-4-methyl-1-oxido-pyridin-1-ium-3-yl]-6-fluoro-2-pyridyl]amino]-2-oxo-ethyl]-2-isopropyl-pyrazole-3-carboxamide] |
| – | <8 mL/min/kg | 18 µg/mL (≈ 32.3 µM) | – | Cc1c(-c2ccc(NC(=O)[C@@H](NC(=O)c3ccnn3C(C)C)C(C3CC3)C3CC3)nc2F)cc(C(F)F)c[n+]1[O-] [Example 49, N-[(1S)-1-(dicyclopropylmethyl)-2-[[5-[5-(difluoromethyl)-2-methyl-1-oxido-pyridin-1-ium-3-yl]-6-fluoro-2-pyridyl]amino]-2-oxo-ethyl]-2-isopropyl-pyrazole-3-carboxamide] |
| – | 10 mL/min/kg | < 1 µg/mL | – | CC(C)n1nccc1C(=O)N[C@H](C(=O)Nc1ccc(-c2c[n+]([O-])cc(F)c2C(F)(F)F)c(F)n1)C(C1CC1)C1CC1 [Example 50, N-[(1S)-1-(dicyclopropylmethyl)-2-[[6-fluoro-5-[5-fluoro-1-oxido-4-(trifluoromethyl)pyridin-1-ium-3-yl]-2-pyridyl]amino]-2-oxo-ethyl]-2-isopropyl-pyrazole-3-carboxamide] |
| – | <8 mL/min/kg | 25 µg/mL (≈ 46.1 µM) | – | CC(C)n1nccc1C(=O)N[C@H](C(=O)Nc1ccc(-c2c[n+]([O-])ccc2C(F)F)c(F)n1)C(C1CC1)C1CC1 [Example 51, N-[(1S)-1-(dicyclopropylmethyl)-2-[[5-[4-(difluoromethyl)-1-oxido-pyridin-1-ium-3-yl]-6-fluoro-2-pyridyl]amino]-2-oxo-ethyl]-2-isopropyl-pyrazole-3-carboxamide] |
| – | <8 mL/min/kg | 4 µg/mL (≈ 7.68 µM) | – | Cc1c[n+]([O-])cc(-c2ccc(NC(=O)[C@@H](NC(=O)c3ccnn3C(C)C)C(C3CC3)C3CC3)nc2F)c1C [Example 52, N-[(1S)-1-(dicyclopropylmethyl)-2-[[5-(4,5-dimethyl-1-oxido-pyridin-1-ium-3-yl)-6-fluoro-2-pyridyl]amino]-2-oxo-ethyl]-2-isopropyl-pyrazole-3-carboxamide] |
| – | <8 mL/min/kg | 39 µg/mL (≈ 74.9 µM) | – | CCc1cc[n+]([O-])cc1-c1ccc(NC(=O)[C@@H](NC(=O)c2ccnn2C(C)C)C(C2CC2)C2CC2)nc1F [Example 53, N-[(1S)-1-(dicyclopropylmethyl)-2-[[5-(4-ethyl-1-oxido-pyridin-1-ium-3-yl)-6-fluoro-2-pyridyl]amino]-2-oxo-ethyl]-2-isopropyl-pyrazole-3-carboxamide] |
| 31 nM | – | – | – | CCc1c(-c2ccc(NC(=O)[C@@H](NC(=O)c3ccnn3C(C)C)C(C3CC3)C3CC3)nc2F)cc(OC)c[n+]1[O-] [Example 60, N-[(1S)-1-(dicyclopropylmethyl)-2-[[6-fluoro-5-(5-methoxy-2-ethyl-1-oxido-pyridin-1-ium-3-yl)-2-pyridyl]amino]-2-oxo-ethyl]-2-isopropyl-pyrazole-3-carboxamide] |
